Test results from PubChem BioAssay AID248 (DTP/NCI, 2004).
“And” between values parts separate entries of the source, which are not always exact repeats. Identical values can stand only once. Inconclusive results and toxic doses are left out. Cut-off read from the data, not from the text of the source: active = T/C of 150% or more; inactive = T/C below 125%.

Test system: L1210 leukemia ip in BDF1 mice, survival T/C
Assay: NCI In Vivo Anticancer Drug Screen. Data for tumor model L1210 Leukemia (intraperitoneal) in B6D2F1 (BDF1) mice
Settings: endpoint: mean survival time, higher = longer survival
Outline: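 Each compound was tested against a transplantable tumor grown in mice. The endpoint was survival, with treated animals benchmarked against vehicle controls as a simple ratio.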

[1] = dose: 100.0 mg/kg/injection, schedule: Q01DX009 (ip), vehicle: saline
[2] = dose: 200.0 mg/kg/injection, schedule: Q01DX009 (ip), vehicle: saline
[3] = dose: 100.0 mg/kg/injection, schedule: Q04DX003 (ip), vehicle: Klucel (hydroxypropylcellulose) (HPC)
[4] = dose: 200.0 mg/kg/injection, schedule: Q04DX003 (ip), vehicle: Klucel (hydroxypropylcellulose) (HPC)
[5] = dose: 100.0 mg/kg/injection, schedule: Q01DX001 (ip), vehicle: carboxymethylcellulose (CMC)
[6] = dose: 100.0 mg/kg/injection, schedule: Q04DX003 (ip), vehicle: saline
[7] = dose: 100.0 mg/kg/injection, schedule: Q01DX009 (ip), vehicle: Klucel (hydroxypropylcellulose) (HPC)
[8] = dose: 200.0 mg/kg/injection, schedule: Q01DX009 (ip), vehicle: Klucel (hydroxypropylcellulose) (HPC)
[9] = dose: 400.0 mg/kg/injection, schedule: Q01DX009 (ip), vehicle: Klucel (hydroxypropylcellulose) (HPC)
[10] = dose: 100.0 mg/kg/injection, schedule: Q04DX002 (ip), vehicle: Klucel (hydroxypropylcellulose) (HPC)
[11] = dose: 200.0 mg/kg/injection, schedule: Q04DX002 (ip), vehicle: Klucel (hydroxypropylcellulose) (HPC)
[12] = dose: 400.0 mg/kg/injection, schedule: Q04DX002 (ip), vehicle: Klucel (hydroxypropylcellulose) (HPC)
[13] = dose: 100.0 mg/kg/injection, schedule: Q01DX009 (ip), vehicle: saline with Tween-80
[14] = dose: 100.0 mg/kg/injection, schedule: Q04DX003 (ip), vehicle: saline with Tween-80
[15] = dose: 200.0 mg/kg/injection, schedule: Q01DX009 (ip), vehicle: saline with Tween-80
[16] = dose: 200.0 mg/kg/injection, schedule: Q04DX003 (ip), vehicle: saline with Tween-80
[17] = dose: 400.0 mg/kg/injection, schedule: Q01DX009 (ip), vehicle: saline with Tween-80
[18] = dose: 400.0 mg/kg/injection, schedule: Q04DX003 (ip), vehicle: saline with Tween-80
[19] = dose: 400.0 mg/kg/injection, schedule: Q04DX003 (ip), vehicle: Klucel (hydroxypropylcellulose) (HPC)
[20] = dose: 100.0 mg/kg/injection, schedule: Q01DX001 (ip), vehicle: saline with Tween-80
[21] = dose: 200.0 mg/kg/injection, schedule: Q01DX001 (ip), vehicle: saline with Tween-80
[22] = dose: 400.0 mg/kg/injection, schedule: Q01DX001 (ip), vehicle: saline with Tween-80
[23] = dose: 400.0 mg/kg/injection, schedule: Q01DX001 (ip), vehicle: carboxymethylcellulose (CMC)

Measured: T/C

COC(C)(C)C(C)O (stereo not given)
inactive: dose: 50.0 mg/kg/injection, schedule: Q01DX009 (ip), vehicle: saline 100 % of control | [1] 96 % of control | [2] 100 % of control

O=C(O)C(c1ccccc1)N1C(=O)c2ccccc2C1=O (stereo not given)
inactive: dose: 50.0 mg/kg/injection, schedule: Q04DX003 (ip), vehicle: Klucel (hydroxypropylcellulose) (HPC) 104 % of control | [3] 109 % of control | [4] 104 % of control

CN(C)CCCNCC(=O)N1CCN(C(=O)CNCCCN(C)C)CC1
inactive: dose: 50.0 mg/kg/injection, schedule: Q01DX001 (ip), vehicle: carboxymethylcellulose (CMC) 106 % of control | [5] 106 % of control

O=[N+]([O-])c1ccc(/C=N/c2nccs2)o1
inactive: dose: 1.56 mg/kg/injection, schedule: Q01DX009 (ip), vehicle: saline 88 % of control | dose: 3.12 mg/kg/injection, schedule: Q01DX009 (ip), vehicle: saline 90 % of control | dose: 6.25 mg/kg/injection, schedule: Q01DX009 (ip), vehicle: saline 93 % of control | dose: 12.5 mg/kg/injection, schedule: Q01DX009 (ip), vehicle: saline 103 % of control | dose: 25.0 mg/kg/injection, schedule: Q01DX009 (ip), vehicle: saline 93 % of control | dose: 25.0 mg/kg/injection, schedule: Q04DX003 (ip), vehicle: saline 97 % of control | dose: 50.0 mg/kg/injection, schedule: Q04DX003 (ip), vehicle: saline 116 % of control | [6] 88 % of control and 91 % of control

O=C1c2ccccc2C(=O)c2ccccc21
inactive: [7] 102 % of control | [8] 88 % of control | [9] 100 % of control

Cc1ccc(S/C(=N\O)C(C)C)cc1
inactive: [10] 108 % of control | [11] 92 % of control | [12] 110 % of control

COC(OC)c1cc(=O)[nH]c(NC(=O)C(Cl)Cl)n1
inactive: dose: 25.0 mg/kg/injection, schedule: Q01DX009 (ip), vehicle: saline with Tween-80 90 % of control | dose: 50.0 mg/kg/injection, schedule: Q01DX009 (ip), vehicle: saline with Tween-80 107 % of control | [13] 106 % of control | [14] 98 % of control | [15] 89 % of control | [16] 104 % of control | [17] 93 % of control | [18] 94 % of control

Nc1cccc2c1nc(NCCO)c1ccccc12
inactive: [3] 114 % of control | [4] 103 % of control | [19] 103 % of control

COc1cccc(CNc2ccc(SC)cc2)c1OC
inactive: [7] 97 % of control | [3] 94 % of control | [8] 105 % of control | [4] 91 % of control | [9] 94 % of control | [19] 91 % of control

O=C1C=CC(=O)N1CCc1ccccc1
inactive: dose: 3.0 mg/kg/injection, schedule: Q01DX009 (ip), vehicle: Klucel (hydroxypropylcellulose) (HPC) 106 % of control | dose: 5.0 mg/kg/injection, schedule: Q01DX009 (ip), vehicle: saline with Tween-80 91 % of control | dose: 6.0 mg/kg/injection, schedule: Q01DX009 (ip), vehicle: Klucel (hydroxypropylcellulose) (HPC) 95 % of control | dose: 10.0 mg/kg/injection, schedule: Q01DX009 (ip), vehicle: saline with Tween-80 87 % of control | dose: 12.0 mg/kg/injection, schedule: Q01DX009 (ip), vehicle: Klucel (hydroxypropylcellulose) (HPC) 103 % of control | dose: 12.5 mg/kg/injection, schedule: Q01DX009 (ip), vehicle: Klucel (hydroxypropylcellulose) (HPC) 97 % of control | dose: 20.0 mg/kg/injection, schedule: Q01DX009 (ip), vehicle: saline with Tween-80 101 % of control | dose: 20.0 mg/kg/injection, schedule: Q04DX003 (ip), vehicle: saline with Tween-80 95 % of control

CCOc1ccc(NC(=O)Oc2ccc(C(=O)OC)cc2)cc1
inactive: [20] 93 % of control | [13] 101 % of control and 103 % of control | dose: 100.0 mg/kg/injection, schedule: Q04DX002 (ip), vehicle: saline with Tween-80 103 % of control and 92 % of control | [14] 105 % of control | [21] 91 % of control | [15] 100 % of control and 103 % of control | dose: 200.0 mg/kg/injection, schedule: Q04DX002 (ip), vehicle: saline with Tween-80 95 % of control and 92 % of control | [16] 103 % of control | [22] 91 % of control | [17] 93 % of control and 94 % of control | dose: 400.0 mg/kg/injection, schedule: Q04DX002 (ip), vehicle: saline with Tween-80 103 % of control | [18] 105 % of control

O=C(Nc1ccc(Nc2ccccc2)cc1)Nc1cccc2ccccc12
inactive: dose: 100.0 mg/kg/injection, schedule: Q01DX001 (ip), vehicle: Klucel (hydroxypropylcellulose) (HPC) 97 % of control | [7] 100 % of control | [1] 100 % of control | [10] 98 % of control and 105 % of control | [3] 97 % of control | dose: 200.0 mg/kg/injection, schedule: Q01DX001 (ip), vehicle: Klucel (hydroxypropylcellulose) (HPC) 92 % of control | [8] 90 % of control | [2] 100 % of control | [11] 93 % of control and 94 % of control | [4] 92 % of control | dose: 400.0 mg/kg/injection, schedule: Q01DX001 (ip), vehicle: Klucel (hydroxypropylcellulose) (HPC) 95 % of control | [9] 100 % of control | dose: 400.0 mg/kg/injection, schedule: Q01DX009 (ip), vehicle: saline 88 % of control | [12] 98 % of control and 102 % of control

BrC1=C(Br)C2(Br)C(c3ccccc3)CC1(Br)C2(Br)Br (stereo not given)
inactive: [6] 92 % of control | dose: 200.0 mg/kg/injection, schedule: Q04DX003 (ip), vehicle: saline 106 % of control | dose: 400.0 mg/kg/injection, schedule: Q04DX003 (ip), vehicle: saline 92 % of control

Cc1nnc2c3ccccc3ccn12
inactive: dose: 50.0 mg/kg/injection, schedule: Q01DX001 (ip), vehicle: saline 101 % of control | dose: 100.0 mg/kg/injection, schedule: Q01DX001 (ip), vehicle: saline 101 % of control | dose: 200.0 mg/kg/injection, schedule: Q01DX001 (ip), vehicle: saline 103 % of control

COC1=CC=C2C3Cc4ccc(OC)c(O)c4C2(C1)CN3C (stereo not given)
inactive: dose: 100.0 mg/kg/injection, schedule: Q04DX003 (ip), vehicle: other 96 % of control

COc1cc2c(C)cc(=O)oc2cc1O
inactive: [5] 98 % of control | [23] 93 % of control

Cc1ccc(S(=O)(=O)N(CC(=O)O)Cc2ccccc2)cc1
inactive: dose: 25.0 mg/kg/injection, schedule: Q01DX009 (ip), vehicle: sodium bicarbonate 104 % of control | dose: 50.0 mg/kg/injection, schedule: Q01DX009 (ip), vehicle: sodium bicarbonate 100 % of control | [20] 100 % of control | [13] 104 % of control | dose: 100.0 mg/kg/injection, schedule: Q01DX009 (ip), vehicle: sodium bicarbonate 98 % of control | [21] 97 % of control | [15] 110 % of control | dose: 200.0 mg/kg/injection, schedule: Q01DX009 (ip), vehicle: sodium bicarbonate 98 % of control | [22] 95 % of control | [17] 95 % of control and 112 % of control | dose: 400.0 mg/kg/injection, schedule: Q01DX009 (ip), vehicle: sodium bicarbonate 97 % of control | dose: 800.0 mg/kg/injection, schedule: Q01DX009 (ip), vehicle: saline with Tween-80 92 % of control | dose: 1600.0 mg/kg/injection, schedule: Q01DX009 (ip), vehicle: saline with Tween-80 117 % of control

O=C(NCCCl)Nc1ncccn1
inactive: [5] 97 % of control | dose: 200.0 mg/kg/injection, schedule: Q01DX001 (ip), vehicle: carboxymethylcellulose (CMC) 106 % of control | [23] 103 % of control

c1ccc([P+](c2ccccc2)(c2ccccc2)C2CCC2)cc1
inactive: dose: 9.4 mg/kg/injection, schedule: Q01DX009 (ip), vehicle: saline with Tween-80 121 % of control | dose: 18.8 mg/kg/injection, schedule: Q01DX009 (ip), vehicle: saline with Tween-80 88 % of control
